Active and inactive are the calls of the source. The calls are words filed in the database; no cut-off is given here.
Experiments:
[1] = target: Casein kinase I isoform delta (Homo sapiens, UniProt P48730); experiment: Inhibition of human recombinant casein kinase-1 delta using casein as substrate after 60 mins by kinase-glo luminescence assay
HL-60 = experiment: Cytotoxicity against human HL60 cells after 72 hrs by Alamar Blue assay; assay type: functional, cell-based; conditions: HL-60, 72 h
[2] = target: Glycogen synthase kinase-3 beta (Homo sapiens, UniProt P49841); experiment: Inhibition of human recombinant GSK-3 beta after 30 mins by luminescence assay
[3] = target: Serine/threonine-protein kinase RAF and Dual specificity mitogen-activated protein kinase kinase 1 (Raf/MEK) (Homo sapiens) (UniProt P04049+Q02750); experiment: Inhibition of RAF-1/MEK1 (unknown origin) assessed as at 10 uM after 5 mins by fluorescence assay relative to control; assay type: protein assay
HUVEC = experiment: Inhibition of VEGFR in HUVEC using […] as substrate at 10 uM incubated for 20 mins prior to substrate addition relative to control; assay type: cell-based; conditions: Homo sapiens
[4] = target: MAP kinase p38 (Homo sapiens) (UniProt O15264+Q15759+Q16539+P53778); experiment: Inhibition of P38 MAP kinase in human A431 cells using TNF-alpha as substrate at 10 uM incubated for 5 mins prior to substrate addition measured after 10 mins by fluorescence assay relative to control; assay type: cell-based; conditions: A-431
[5] = target: Mitogen-activated protein kinase; ERK1/ERK2 (Homo sapiens) (UniProt P27361+P28482); experiment: Inhibition of ERK1/2 kinase in human A431 cells using EGF as substrate at 10 uM incubated for 5 mins prior to substrate addition measured after 10 mins by fluorescence assay relative to control; assay type: cell-based; conditions: A-431
[6] = target: Serine/threonine-protein kinase B-raf (Homo sapiens) (UniProt P15056); experiment: Competitive binding to B-RAF kinase (unknown origin) at 100 nM to 100 uM after 60 to 120 mins by FRET analysis
Sequence of Serine/threonine-protein kinase B-raf (Homo sapiens) (P15056 whole entry): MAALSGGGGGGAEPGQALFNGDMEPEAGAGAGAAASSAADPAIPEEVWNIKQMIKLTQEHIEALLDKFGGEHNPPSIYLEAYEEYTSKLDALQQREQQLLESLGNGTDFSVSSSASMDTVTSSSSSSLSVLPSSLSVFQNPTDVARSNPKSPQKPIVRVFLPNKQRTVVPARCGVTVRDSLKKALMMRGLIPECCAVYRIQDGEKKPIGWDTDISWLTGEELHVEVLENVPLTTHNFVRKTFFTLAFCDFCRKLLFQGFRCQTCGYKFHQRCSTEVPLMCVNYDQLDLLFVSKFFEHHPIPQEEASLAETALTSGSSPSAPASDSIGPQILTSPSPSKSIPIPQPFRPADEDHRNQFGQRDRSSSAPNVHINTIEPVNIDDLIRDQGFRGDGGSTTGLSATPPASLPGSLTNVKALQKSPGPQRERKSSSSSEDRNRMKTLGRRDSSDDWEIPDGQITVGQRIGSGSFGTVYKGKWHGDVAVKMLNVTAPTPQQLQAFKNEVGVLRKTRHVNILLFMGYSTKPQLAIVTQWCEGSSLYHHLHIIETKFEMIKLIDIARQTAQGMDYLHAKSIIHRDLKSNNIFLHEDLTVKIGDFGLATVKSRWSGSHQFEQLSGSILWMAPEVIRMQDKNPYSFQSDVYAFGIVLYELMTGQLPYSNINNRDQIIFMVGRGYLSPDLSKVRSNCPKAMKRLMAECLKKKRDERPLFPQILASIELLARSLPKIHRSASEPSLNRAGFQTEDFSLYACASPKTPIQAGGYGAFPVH

Sequence of Glycogen synthase kinase-3 beta (P49841 whole entry): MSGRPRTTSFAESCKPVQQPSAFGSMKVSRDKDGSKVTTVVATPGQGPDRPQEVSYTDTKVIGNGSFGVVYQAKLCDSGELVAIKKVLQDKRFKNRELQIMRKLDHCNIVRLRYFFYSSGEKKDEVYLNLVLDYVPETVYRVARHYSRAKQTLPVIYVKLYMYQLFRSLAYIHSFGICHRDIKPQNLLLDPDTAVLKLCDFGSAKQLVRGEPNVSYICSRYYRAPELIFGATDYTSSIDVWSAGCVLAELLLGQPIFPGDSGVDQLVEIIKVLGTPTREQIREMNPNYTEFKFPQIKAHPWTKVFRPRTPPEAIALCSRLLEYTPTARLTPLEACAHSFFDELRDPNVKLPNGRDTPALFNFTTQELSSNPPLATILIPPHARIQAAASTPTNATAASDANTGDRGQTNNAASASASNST
Sequence of Casein kinase I isoform delta (P48730 whole entry, canonical isoform): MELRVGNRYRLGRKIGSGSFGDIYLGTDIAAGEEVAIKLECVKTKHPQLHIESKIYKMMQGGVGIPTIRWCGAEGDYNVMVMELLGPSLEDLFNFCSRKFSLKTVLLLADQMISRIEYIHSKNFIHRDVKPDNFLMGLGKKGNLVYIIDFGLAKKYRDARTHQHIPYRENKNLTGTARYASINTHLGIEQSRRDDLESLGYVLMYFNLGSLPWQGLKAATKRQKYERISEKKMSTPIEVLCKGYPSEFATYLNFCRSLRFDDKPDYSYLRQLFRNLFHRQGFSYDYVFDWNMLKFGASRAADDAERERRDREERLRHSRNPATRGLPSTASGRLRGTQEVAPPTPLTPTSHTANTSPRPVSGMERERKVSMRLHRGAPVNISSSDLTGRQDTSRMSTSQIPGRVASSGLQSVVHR
Sequence of Mitogen-activated protein kinase; ERK1/ERK2 (Homo sapiens) (P27361 whole entry, looked up): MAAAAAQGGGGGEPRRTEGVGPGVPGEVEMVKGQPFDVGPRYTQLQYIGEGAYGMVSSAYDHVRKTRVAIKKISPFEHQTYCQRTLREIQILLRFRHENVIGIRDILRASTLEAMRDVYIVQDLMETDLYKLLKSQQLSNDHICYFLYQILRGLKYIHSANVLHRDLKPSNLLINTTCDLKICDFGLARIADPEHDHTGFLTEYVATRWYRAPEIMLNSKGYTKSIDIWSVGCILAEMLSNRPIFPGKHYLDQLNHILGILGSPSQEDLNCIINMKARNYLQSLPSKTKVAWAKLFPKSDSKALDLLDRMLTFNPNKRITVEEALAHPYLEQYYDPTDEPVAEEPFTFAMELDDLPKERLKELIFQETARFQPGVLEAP
Sequence of Mitogen-activated protein kinase; ERK1/ERK2 (Homo sapiens) (P28482 whole entry, looked up): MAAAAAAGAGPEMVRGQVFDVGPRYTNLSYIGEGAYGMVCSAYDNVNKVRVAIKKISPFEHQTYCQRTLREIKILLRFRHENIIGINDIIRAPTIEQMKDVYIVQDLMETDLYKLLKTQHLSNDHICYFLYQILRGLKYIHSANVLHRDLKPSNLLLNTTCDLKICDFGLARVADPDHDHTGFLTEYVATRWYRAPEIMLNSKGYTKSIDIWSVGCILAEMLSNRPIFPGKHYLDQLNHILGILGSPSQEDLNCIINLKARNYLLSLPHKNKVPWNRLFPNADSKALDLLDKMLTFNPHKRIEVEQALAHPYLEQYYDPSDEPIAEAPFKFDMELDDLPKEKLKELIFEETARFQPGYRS
Sequence of Serine/threonine-protein kinase RAF and Dual specificity mitogen-activated protein kinase kinase 1 (Raf/MEK) (Homo sapiens) (P04049 whole entry, looked up): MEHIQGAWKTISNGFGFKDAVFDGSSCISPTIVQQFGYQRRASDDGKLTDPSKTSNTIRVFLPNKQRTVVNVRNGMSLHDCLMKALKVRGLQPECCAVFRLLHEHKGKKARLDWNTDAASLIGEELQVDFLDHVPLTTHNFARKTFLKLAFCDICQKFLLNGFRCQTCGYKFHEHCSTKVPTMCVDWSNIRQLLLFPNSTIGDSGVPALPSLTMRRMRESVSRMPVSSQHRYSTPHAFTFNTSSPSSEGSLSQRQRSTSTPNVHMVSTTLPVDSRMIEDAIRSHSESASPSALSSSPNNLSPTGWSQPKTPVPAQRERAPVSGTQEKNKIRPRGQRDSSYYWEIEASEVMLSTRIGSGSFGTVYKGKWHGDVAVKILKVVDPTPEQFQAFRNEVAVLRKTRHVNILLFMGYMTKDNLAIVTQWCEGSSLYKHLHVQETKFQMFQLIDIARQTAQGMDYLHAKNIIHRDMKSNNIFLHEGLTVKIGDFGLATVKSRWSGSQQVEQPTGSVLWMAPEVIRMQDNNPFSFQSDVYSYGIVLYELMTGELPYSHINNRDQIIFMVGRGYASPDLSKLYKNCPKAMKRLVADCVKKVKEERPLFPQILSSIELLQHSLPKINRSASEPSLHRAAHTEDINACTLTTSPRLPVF
Sequence of Serine/threonine-protein kinase RAF and Dual specificity mitogen-activated protein kinase kinase 1 (Raf/MEK) (Homo sapiens) (Q02750 whole entry, looked up): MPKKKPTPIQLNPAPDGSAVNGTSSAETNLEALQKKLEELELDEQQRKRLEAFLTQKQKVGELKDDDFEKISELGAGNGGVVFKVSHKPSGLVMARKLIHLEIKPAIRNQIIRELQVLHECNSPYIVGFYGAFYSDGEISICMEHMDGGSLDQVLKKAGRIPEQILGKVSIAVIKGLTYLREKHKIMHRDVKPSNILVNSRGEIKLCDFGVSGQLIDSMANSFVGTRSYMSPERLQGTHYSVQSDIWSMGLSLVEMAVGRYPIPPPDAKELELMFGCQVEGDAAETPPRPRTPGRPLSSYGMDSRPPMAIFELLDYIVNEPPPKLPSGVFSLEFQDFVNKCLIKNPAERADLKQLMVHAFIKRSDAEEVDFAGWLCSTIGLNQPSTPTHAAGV

IC50 [1] [µM] | IC50 [2] [µM] | inhibition [3] [%] | inhibition [4] [%] | inhibition [5] [%] | Activity [6] | SMILES | IC50 (HL-60) [µM] | inhibition (HUVEC) [%]
> 100 | > 100 | – | – | – | – | N=C(N)Nc1cccc(C(=O)c2ccc(NC(=N)Nc3ccccc3)cc2)c1 | > 100 | –
> 100 | > 100 | 4 | 1 | – | – | N=C(N)Nc1cccc(Oc2ccc(NC(=N)Nc3ccccc3)cc2)c1 | > 100 | -1
> 100 | > 100 | 96 | 21 | -7 | inactive | N=C(N)Nc1cccc(Oc2ccc(NC(=N)Nc3ccc(Cl)c(C(F)(F)F)c3)cc2)c1 | 24.5 | 0
> 100 | > 100 | – | – | – | – | c1cc(Cc2ccc(NC3=NCCN3)cc2)cc(NC2=NCCN2)c1 | > 100 | –
– | – | – | – | – | – | CNC(=O)c1cc(Oc2ccc(NC(=O)Nc3ccc(Cl)c(C(F)(F)F)c3)cc2)ccn1 [SORAFENIB] | 1.68 | –
> 100 | > 100 | 96 | 20 | 21 | inactive | N=C(N)Nc1cccc(C(=O)c2ccc(NC(=N)Nc3ccc(Cl)c(C(F)(F)F)c3)cc2)c1 | 22.3 | 0
> 100 | > 100 | 74 | 12 | – | inactive | N=C(N)Nc1cccc(Nc2ccc(NC(=N)Nc3ccc(Cl)c(C(F)(F)F)c3)cc2)c1 | 36.6 | -3
> 100 | > 100 | – | – | – | – | c1cc(NC2=NCCN2)cc(Oc2ccc(NC3=NCCN3)cc2)c1 | > 100 | –
> 100 | > 100 | 22 | -1 | -4 | – | N=C(N)Nc1ccc(Oc2cccc(NC(=N)N)c2)cc1 | 36.2 | -1
> 100 | > 100 | 99 | -7 | 17 | inactive | N=C(N)Nc1cccc(Cc2ccc(NC(=N)Nc3ccc(Cl)c(C(F)(F)F)c3)cc2)c1 | 15.9 | 17
> 100 | > 100 | – | – | – | – | O=C(c1ccc(NC2=NCCN2)cc1)c1cccc(NC2=NCCN2)c1 | > 100 | –
> 100 | > 100 | – | – | – | inactive | N=C(N)Nc1ccc(Cc2cccc(NC(=N)Nc3ccc(Cl)c(C(F)(F)F)c3)c2)cc1 | 16.6 | –
> 100 | > 100 | – | – | – | – | N=C(N)Nc1cccc(Cc2ccc(NC(=N)Nc3ccccc3)cc2)c1 | > 100 | –
> 100 | > 100 | – | – | – | – | N=C(N)Nc1cccc(Nc2ccc(NC(=N)Nc3ccccc3)cc2)c1 | > 100 | –
> 100 | > 100 | – | – | – | – | N=C(N)Nc1ccc(C(=O)c2cccc(NC(=N)N)c2)cc1 | 141 | –
> 100 | > 100 | – | – | – | – | N=C(N)Nc1ccc(Cc2cccc(NC(=N)N)c2)cc1 | 35.1 | –
> 100 | > 100 | 2 | -1 | 6 | – | N=C(N)Nc1ccc(Oc2ccc(NC(=N)N)cc2)cc1 | 88.4 | 7
> 100 | > 100 | – | – | – | – | N=C(N)Nc1ccc(Cc2cccc(NC(=N)Nc3ccccc3)c2)cc1 | > 100 | –
> 100 | > 100 | 38 | 12 | 12 | inactive | CC(=O)Nc1cccc(Nc2ccc(NC(=N)Nc3ccc(Cl)c(C(F)(F)F)c3)cc2)c1 | 3.96 | 1
> 100 | > 100 | 35 | 0 | 8 | inactive | CC(=O)Nc1cccc(Oc2ccc(NC(=N)Nc3ccc(Cl)c(C(F)(F)F)c3)cc2)c1 | 9.11 | –
> 100 | > 100 | – | – | – | – | N=C(N)Nc1ccc(Oc2cccc(NC(=N)Nc3ccccc3)c2)cc1 | > 100 | –
> 100 | > 100 | 86 | 4 | – | – | N=C(N)Nc1ccc(Nc2cccc(NC(=N)N)c2)cc1 | 67.7 | -6
